The values below come from patent publication US8741965B2, “Method of administering a pheromone composition to an animal to modify the animals behavior over an extended period of time” (Sergeant's Pet Care Products, Inc., priority 2011, dated 2014).

Each structure is given as a SMILES string.

One assay relates to nervous dogs. As to the kind of experiment: Example 11 Study 3: DAP spray versus RP spray with startle. Type of assay: in vivo, dog. An excerpt: Eight dogs were obtained from a local contract research facility and assessment was made as to general dog health, behavior and heart rate. The dogs were estimated to be 2 to 7 years of age, mixed breed, and weighed averagely 8.1±0.18 kg at the start of the studies. […] Upon arrival each dog was bathed using shampoo containing flea and tick medicine (Hartz Mountain Corp. Secaucus, N.J. USA), and their body hair was shaved. Each dog was kept in a single room, which had 100% fresh air intake and exhaust. The dogs were fed twice (am and pm) per day ad libitum. At that time, the room was cleaned and the dogs obtained extra exercise. Water was available ad libitum.
Dog behavior was captured on video media at a sampling rate of 30 frames per second. Video records were reviewed in real time (with tape playing 30 frames per second). A scan sampling method was used to record dog behaviors each minute or each 5 minutes depending on the particular study. If the sample period was 120 minutes with four periods (0-30=0, 30-60=30, 60-90=60, and 90-120-90 min), then a scan sample was recorded each 1 minute. If the sample period was 24 hours, then the scan sample was collected each 5 minutes and summarized each hour. For example, pacing is when a dog walks in a stereotyped manner for minutes to hours. Because it was not easy to distinguish walking from pacing, the behaviors were merged. In addition, the video records could not clearly distinguish lying down and awake versus lying down and sleeping, therefore there was no separate description for these two behaviors.
Heart rate during the studies was measured by the use of a non-invasive telemetry system (Data Science International, St. Paul, Minn., USA). Leads were placed in contact with the dogs' shaved skin. Sensors measured heart rate, surface temperature and general activity. Data were transmitted to a receiving computer in another room. The sampling rate varied with the study, but was 5 seconds for the first two hours after treatments and then each 1 minute for 24 hours (depending on the particular study). For surface temperature measurements of the dog subjects, a thermistor was located against the skin of each dog. It recorded the surface temperature to the neared 0.1° C. on the same interval as the heart rate data.
Behavior and physiological data (heart rate and surface temperature) were analyzed by least squares analysis of variance using SAS (2011) software and the general linear models procedures. The experimental design of each study was a specialized randomized complete block in a Latin square design with data collected as a split plot over time. Dogs represented the blocks. Each dog received each treatment randomly in successive days or weeks. The statistical model included effects of treatment (TRT), dog, dog by treatment (TRT*DOG; error term used to assess treatment and dog effects), time (HR), treatment by time (TRT*HR), and residual error (SE; used to test remaining effects). Behavior data were collected and analyzed as counts per time period, but for clarity of presentation, the data are reported as percentage of time dogs engaged in each behavior.
In Study 1 and 2, the DAP was applied as a collar and the rabbit pheromone as a spray. To test if the physical form of the pheromone/INTEROMONE® impacted its efficacy, Study 3 examined the behavior and heart rate effects of Dog Appeasing Pheromone (DAP) and rabbit pheromone (RP) both applied as a spray after startle in order to obtain a direct comparison between sprays. Accordingly, Study 3 examined the relative effect of DAP spray (DAPS) and RP spray on the behavior and heart rate of the dog subjects. Both treatments were given to each dog in a random order. In this study, the Behavior data were collected from dogs 1-8 while heart rate data were collected from dogs 1-4.

The subject of another assay is dog. As to the kind of experiment: Room diffuser containing rabbit pheromone, use on dogs (Example 8). The conditions noted are these: 0.02% 2-methylbut-2-enal. Type of assay: in vivo. An excerpt: A room diffuser formulation containing rabbit pheromone can be prepared according to typical industry techniques described above. Table 4 is the list of ingredients that can be used to prepare a diffuser formulation comprising a rabbit pheromone.

As to `C/C=C(\C)C=O` [RP, 2-methylbut-2-enal], in the assay on nervous dogs (DAPS or RP spray with startle), the Defecate is 0.93 % of time, the Drink is 0 % of time, the Eat is reported as 0 % of time and the Lick self is 0 % of time. Further, in the assay with nervous dogs (DAPS or RP spray with startle), the Lying down is on record as 43.8 % of time, the Pace-walk is 9.8 % of time, the Sitting was 35.4 % of time and the Standing is recorded as 3.7 % of time. Further, the Urinate with nervous dogs (DAPS or RP spray with startle) is recorded as 0 % of time. In addition, the “sitting, main effect of treatment” value in the assay with nervous dogs (RP spray versus DAP spray, startle) is listed as “tended to sit more (P=0.068) than DAP sprayed dogs”. For the same compound, in the assay on nervous dogs (spray and startle, dogs 1-4, FIG. 14B), the “heart rate change relative to time zero” value is “generally unchanged over time, although were lower than baseline rate”. Further, the “lying down of individual dogs” value in the assay with nervous dogs (sprays, during startle, FIG. 13) was “Dog 3 showed increased lying down”. For the same compound, in the assay with nervous dogs (sprays, startle, FIGS. 11 and 12), the “pacing-walking and standing of individual dogs” value is “dogs 1 and 4 had increased pacing-walking”. The “change in dog behavior” value in the assay on dog is listed as “significant change in behavior towards a calmer demeanor”.
